Test results as given in US11384078B2, “5,6-fused-bicyclic compounds and compositions for the treatment of parasitic diseases” (NOVARTIS AG, priority 2017, dated 2022).
pEC50: −log10 of the molar value. Like-named read-outs stand apart in the source and are kept apart here.

Columns and labels:
Assay type in all cases: cell-based
[1] = tested on: Trypanosoma brucei brucei (Lister 427) strain; assay: Assay for growth inhibition against Trypanosoma brucei brucei (Cell TiterGlo ATP luminescence); details: Trypanosoma brucei, T. brucei brucei (Lister 427); read-out: T. Brucei (HAT) EC50
Procedure, shortened: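 Growth read-out is cellular ATP by CellTiter-Glo luminescence, measured 30 min after reagent addition, following 2-day incubation at 37 °C in CO2. Parasites (10,000/mL, HMI-9 plus 10% FBS and 10% serum plus) faced 10 threefold dilutions in duplicate; IC50 taken as 50% growth inhibition versus untreated.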

[2] = tested on: Trypanosoma cruzi amastigotes cultured in 3T3 fibroblast cells; assay: Assay for growth inhibition of kinetoplastid parasite Trypanosoma cruzi (beta-galactosidase Tulahuen strain, CPRG readout); details: Trypanosoma cruzi, T. cruzi amastigotes in 3T3 fibroblast cells, read-out: Buckner infectious T. cruzi EC50
Procedure, shortened: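 3T3 fibroblasts (1,000 cells/well) plated overnight, treated with compound in DMSO, then infected with 10,000 Lac-Z-expressing Tulahuen trypomastigotes. After 6 days, 0.6 mM CPRG with 0.6% NP-40 added for 2 h at room temperature; absorbance gives relative intracellular amastigote numbers. Benznidazole and nifurtimox serve as positive controls.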

[3] = tested on: Leishmania donovani axenic amastigote; assay: In vitro assay for growth inhibition of Leishmania donovani axenic amastigote (Cell TiterGlo luminescence); details: Leishmania donovani, L. donovani axenic amastigotes in vitro; read-out: L. donovani amastigotes EC50
Procedure, shortened: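 Compound-treated wells received 9600 axenic amastigotes in RPMI 1640-based medium at pH 5.5 (37 °C, 5% CO2). Growth measured as ATP luminescence (CellTiter-Glo) after 2-day incubation; DMSO and reference compounds served as controls.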

[4] = tested on: L. donovani HU3 strain in mouse peritoneal macrophages; assay: Assay for inhibition of parasitemia of Leishmania donovani in mouse macrophages (SYBR Green nuclei count, high-content imaging); details: Leishmania donovani, Peritoneal macrophage, read-out: L. donovani in Mouse Macrophages EC50
Procedure, shortened: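 Parasite numbers were counted from SYBR Green-stained nuclei imaged by high-content microscopy after paraformaldehyde fixation and Triton permeabilization. Before this, compound was applied for 5 days at 37° C to BALB/c peritoneal macrophages (2×10^4/well) that had been exposed 24 h to 4×10^5 L. donovani HU3 amastigotes harvested from infected mouse spleens.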

[5] = L. donovani in mouse peritoneal macrophages

Row | Structure (SMILES) | pEC50 [1] | pEC50 ([2]; Fibroblast) | pEC50 [3] | pEC50 [4, 5] | pEC50 [2] | pEC50 [4]
1 | CC(C)CCc1cnc2nn(-c3cc(NC(=O)N4CCC4)ccc3F)cc2c1 [Compound 98, N-{4-fluoro-3-[5-(3-methylbutyl)-2H-pyrazolo[3,4-b]pyridin-2-yl]phenyl}azetidine-1-carboxamide] | > 7.64 | 7.82 | 7.60 | 7.64 | – | –
2 | O=C(Nc1ccc(F)c(-n2cc3cc(-c4ccccn4)cnc3n2)c1)N1CCC1 [Compound 99, N-{4-fluoro-3-[5-(pyridin-2-yl)-2H-pyrazolo[3,4-b]pyridin-2-yl]phenyl}azetidine-1-carboxamide] | < 4.30 | 9.00 | 8.89 | 8.70 | – | –
3 | Cc1nc(C)c(C(=O)Nc2ccc(F)c(-n3cc4cc(C5CCC5)cnc4n3)c2)o1 [Compound 101, N-(3-{5-cyclobutyl-2H-pyrazolo[3,4-b]pyridin-2-yl}-4-fluorophenyl)-2,4-dimethyl-1,3-oxazole-5-carboxamide] | 6.82 | 6.89 | 6.52 | 6.51 | – | –
4 | Cc1nc(C)c(C(=O)Nc2ccc(F)c(-n3cc4cc(C(C)(C)C)cnc4n3)c2)o1 [Compound 103, N-(3-{5-tert-butyl-2H-pyrazolo[3,4-b]pyridin-2-yl}-4-fluorophenyl)-2,4-dimethyl-1,3-oxazole-5-carboxamide] | 6.51 | 6.82 | 6.17 | 6.40 | – | –
5 | CCC(C)(C)c1cnc2nn(-c3cc(NC(=O)c4oc(C)nc4C)ccc3F)cc2c1 [Compound 104, N-{4-fluoro-3-[5-(2-methylbutan-2-yl)-2H-pyrazolo[3,4-b]pyridin-2-yl]phenyl}-2,4-dimethyl-1,3-oxazole-5-carboxamide] | 5.38 | 5.92 | 5.51 | 5.68 | – | –
6 | CCC(C)c1cnc2nn(-c3cc(NC(=O)c4oc(C)nc4C)ccc3F)cc2c1 (centres unmarked) [Compound 105, N-{3-[5-(butan-2-yl)-2H-pyrazolo[3,4-b]pyridin-2-yl]-4-fluorophenyl}-2,4-dimethyl-1,3-oxazole-5-carboxamide] | 6.42 | 6.37 | 6.14 | 6.05 | – | –
7 | Cc1nc(C)c(C(=O)Nc2ccc(F)c(-n3cc4cc(CC5CCC5)cnc4n3)c2)o1 [Compound 106, N-{3-[5-(cyclobutylmethyl)-2H-pyrazolo[3,4-b]pyridin-2-yl]-4-fluorophenyl}-2,4-dimethyl-1,3-oxazole-5-carboxamide] | < 4.30 | 7.21 | 6.89 | 7.07 | – | –
8 | Cc1nc(C)c(C(=O)Nc2ccc(F)c(-n3cc4cc(CCC(C)C)cnc4n3)c2)o1 [Compound 107, N-{4-fluoro-3-[5-(3-methylbutyl)-2H-pyrazolo[3,4-b]pyridin-2-yl]phenyl}-2,4-dimethyl-1,3-oxazole-5-carboxamide] | 7.06 | 7.11 | 6.66 | 6.89 | – | –
9 | Cc1nc(C)c(C(=O)Nc2ccc(F)c(-n3cc4cc(-c5ccccn5)cnc4n3)c2)o1 [Compound 108, N-{4-fluoro-3-[5-(pyridin-2-yl)-2H-pyrazolo[3,4-b]pyridin-2-yl]phenyl}-2,4-dimethyl-1,3-oxazole-5-carboxamide] | > 7.64 | 8.42 | 8.48 | 8.40 | – | –
10 | CC(C)OC(=O)Nc1cnc2nn(-c3cc(NC(=O)c4ccco4)ccc3F)cc2c1 [Compound 123, propan-2-yl N-{2-[2-fluoro-5-(furan-2-amido)phenyl}-2H-pyrazolo[3,4-b]pyridin-5-yl}carbamate] | > 7.64 | 8.36 | 8.03 | 8.05 | – | –
11 | O=C(Nc1ccc(F)c(-n2cc3cc(Br)cnc3n2)c1)N1CC(F)(F)C1 [Compound 125, N-(3-(5-bromo-2H-pyrazolo[3,4-b]pyridin-2-yl)-4-fluorophenyl)-3,3-difluoroazetidine-1-carboxamide] | > 7.64 | – | 7.36 | – | 7.47 | 7.51
12 | O=C(Nc1ccc(F)c(-n2cc3cc(Br)cnc3n2)c1)N1CC(F)C1 [Compound 126, N-(3-(5-bromo-2H-pyrazolo[3,4-b]pyridin-2-yl)-4-fluorophenyl)-3-fluoroazetidine-1-carboxamide] | > 7.64 | – | 7.62 | – | 7.85 | 7.85
13 | O=C(Nc1ccc(F)c(-n2cc3cc(Br)cnc3n2)c1)N1CC[C@@H](F)C1 [Compound 127, (R)—N-(3-(5-bromo-2H-pyrazolo[3,4-b]pyridin-2-yl)-4-fluorophenyl)-3-fluoropyrrolidine-1-carboxamide] | > 7.64 | 8.17 | 7.60 | 7.77 | – | –
14 | Cc1nc(C)c(C(=O)Nc2ccc(F)c(-n3cc4cc(Br)cnc4n3)c2)o1 [Compound 128, N-(3-(5-bromo-2H-pyrazolo[3,4-b]pyridin-2-yl)-4-fluorophenyl)-2,4-dimethyloxazole-5-carboxamide] | 6.74 | 6.85 | 6.42 | 6.72 | – | –
15 | O=C(Nc1ccc(F)c(-n2cc3cc(Br)cnc3n2)c1)N1CCC1 [Compound 129, N-(3-(5-bromo-2H-pyrazolo[3,4-b]pyridin-2-yl)-4-fluorophenyl)azetidine-1-carboxamide] | > 7.64 | – | 7.54 | – | 7.82 | 7.51
16 | O=C(Nc1ccc(F)c(-n2cc3cc(Br)cnc3n2)c1)c1ccco1 [Compound 130, N-(3-(5-bromo-2H-pyrazolo[3,4-b]pyridin-2-yl)-4-fluorophenyl)furan-2-carboxamide] | 7.40 | 7.44 | 6.72 | 6.80 | – | –
17 | O=C(Nc1ccc(F)c(-n2cc3cc(N4CCCC4)cnc3n2)c1)N1CC(F)C1 [Compound 131, 3-fluoro-N-{4-fluoro-3-[5-(pyrrolidin-1-yl)-2H-pyrazolo[3,4-b]pyridin-2-yl]phenyl}azetidine-1-carboxamide] | > 7.64 | 8.28 | 8.15 | 8.29 | – | –
18 | O=C(Nc1ccc(F)c(-n2cc3cc(N4CCOCC4)cnc3n2)c1)N1CC(F)C1 [Compound 132, 3-fluoro-N-{4-fluoro-3-[5-(morpholin-4-yl)-2H-pyrazolo[3,4-b]pyridin-2-yl]phenyl}azetidine-1-carboxamide] | > 7.64 | 7.89 | 7.96 | 8.15 | – | –
19 | CN(C)c1cnc2nn(-c3cc(NC(=O)N4CC[C@@H](F)C4)ccc3F)cc2c1 [Compound 133, (3R)-N-{3-[5-(dimethylamino)-2H-pyrazolo[3,4-b]pyridin-2-yl]-4-fluorophenyl}-3-fluoropyrrolidine-1-carboxamide] | > 7.64 | 8.23 | 7.92 | 8.10 | – | –
20 | O=C(Nc1ccc(F)c(-n2cc3cc(N4CCCC4)cnc3n2)c1)N1CC[C@@H](F)C1 [Compound 134, (3R)-3-fluoro-N-{4-fluoro-3-[5-(pyrrolidin-1-yl)-2H-pyrazolo[3,4-b]pyridin-2-yl]phenyl}pyrrolidine-1-carboxamide] | > 7.64 | 7.70 | 7.64 | 8.27 | – | –
